The record followed here is patent publication US11045519B2, “Arginine-rich polypeptide compositions and methods of using same” (UNM Rainforest Innovations, priority 2017, dated 2021).

In test [1] the test system is HPV16 PsVs. Nature of the test: Direct pre-incubation of HPV16 PsVs with peptide, dilution below IC50, then infection of HaCaT cells. It is filed as cell-based. The conditions noted are these: 0.3 μM, 1 h 37° C., diluted 1500-fold, HaCaT cells 24 h. The protocol:
FIG. 3. […] HPV16 PsVs were incubated with 0.3 μM polyR for one hour at 37° C. The virus-polyR mixture was diluted with CM to reduce the polyR concentration below the IC50 value prior to incubation with HaCaT cells for 24 hours (HPV16-polyR). The control included untreated HPV16 PsVs (HPV16) added to HaCaT cells. Infection was measured after 24-hour incubation.
FIG. 15. Direct interaction of PrS to HPV16 PsVs. HPV16 PsVs were incubated with 1 μM PrS or HA:PrS complex for one hour at 37° C. Virus-PrS/or HA:PrS mixture was diluted with CM in order to reduce the PrS concentration below the IC50 value, and incubated with HaCaT cells for 24 hours. The control included untreated HPV16 PsVs. Infection was measured after 24 hours incubation as described in FIG. 12.
Typically, direct interaction of cationic inhibitors with the viral capsids of non-enveloped viruses (including HPV) is sufficient for antiviral activity. To determine whether polyR inhibited HPV16 infectivity by direct interaction with viral capsids, HPV16 PsVs were incubated with […] for one hour at 37° C. The virus-polyR mixture was diluted 1500-fold to reduce the polyR concentration below the IC50 value, then incubated with HaCaT cells. The control included cells exposed to HPV PsVs that were not treated with polyR. […]

For test [2], the system named is HPV16 PsVs. Nature of the test: HPV16 PsV binding to HaCaT cells at 4° C. (L1 immunoblot / immunofluorescence). Format: cell-based. The protocol: FIG. 4. PolyR treatment of host cells inhibits HPV16 binding to cells. (A) Confluent HaCaT cell monolayers were treated with 1 μM polyR (in CM) for 30 minutes, before adding 100 vge/cell HPV16 PsVs, and incubated at 4° C. for one hour (to promote binding but prevent virus internalization). After washing out of unbound virus, cells were lysed (25 mM Tris pH7.5, 150 mM NaCl, 1% Triton-X100 supplemented with protease inhibitors) and centrifuged at 16,000×g for 10 minutes. Protein concentrations in supernatant were measured using the Bradford method (Bio-Rad Laboratories, Inc., Hercules, Calif.). Samples were boiled in SDS-containing sample buffer, and aliquots containing equal amount of protein ([…] to 200 μg) separated by SDS-polyacrylamide gel electrophoresis (SDS-PAGE), using 10% gel. Proteins were transferred onto polyvinylidene difluoride (PVDF) membranes and subjected to analysis using anti-HPV16 L1 primary antibody (Camvir-1, sc-47699, Santa Cruz Biotechnology, Inc., Dallas, Tex.;1:5000 dilution) for detection of HPV16 major capsid protein, L1. Proteins were visualized by enhanced chemiluminescence (SUPERSIGNAL West Pico Chemiluminescent Substrate, Thermo Fisher Scientific, Inc., Waltham, Mass.) and exposed to film (Phenix Research Products, Candler, N.C.). (B) Immunofluorescence assays were performed essentially as described previously (Surviladze et al., 2012. PLoS Pathogens 8:e1002519). HaCaT cells were grown on coverslips at approximately 50% confluence and treated with 3 μM polyR for 30 minutes at 37° C. before the addition of 1000 vge of HPV16 PsVs per coverslip. Cells were incubated for one hour at 4° C. and washed several times with PBS, before the fixation with 4% paraformaldehyde (PFA). BSA-blocked cells were incubated with rabbit polyclonal HPV16 antibody (antibody was affinity-purified from rabbit anti-HPV VLP antisera). PBS-washed slides were incubated with donkey AF488-conjugated anti-rabbit IgG secondary antibody; phalloidin-rhodamine (Cytoskeleton, Inc., Denver, Colo.) was used for actin staining. After extensive washing with PBS, cells were mounted in Gold Antifade and immunofluorescent (IF) images were captured by confocal photo-microscopy.
(A) HPV16 PsVs were bound to HaCaT cells (one hour at 4° C.), before the addition of […]. After a one-hour incubation at 4° C., unbound virus was washed out, cells were lysed and analyzed for the content of HPV L1 protein. (B) HaCaT cells were exposed to HPV 16 PsV at 4° C. in the absence of polyR, simultaneously with polyR (0 h), or one hour after polyR treatment (+1 h). After extensive washing with PBS, cells were lysed and analyzed for the content of HPV16 L1 protein.
FIG. 16. PrS pretreated cells binding of HPV16. Confluent HaCaT cell monolayers were treated with 1 μM PrS (in CM) before the addition of 200 vge/cell HPV16 PsVs and incubated at 4° C. for one hour (conditions to prevent virus internalization). After washing out of unbound virus, cells were lysed (25 mM Tris pH7.5, 150 mM NaCl, 1% Triton-X100 supplemented with protease inhibitors) and centrifuged at 16,000×g for 10 minutes. Protein concentrations in supernatant were measured using the Bradford method (Bio-Rad Laboratories, Inc., Hercules, Calif.). Samples were boiled in SDS-containing sample buffer, and aliquots containing equal amount of protein (˜50 μg to 200 μg) separated by SDS-polyacrylamide gel electrophoresis (SDS-PAGE) using 10% gel. […]
Background: A western blot detects proteins with antibodies after separation by electrophoresis.

In the case of poly-L-arginine [polyR], in the test with HPV16 PsVs [1], the “effect of pre-incubation of HPV16 PsVs on infection” value is reported as “did not inhibit infection to a statistically significant degree”. Also, the “HPV16 binding to pre-treated cells (L1 immunoblot)” value with HPV16 PsVs [2] (1 μM, 30 min pre-treatment, 100 vge/cell, 4° C. 1 h) is “almost completely blocked HPV16 binding”. In the test with HPV16 PsVs [2] (3 μM, 30 min pre-treatment, 4° C. 1 h), the “HPV16 bound to cell surface (confocal microscopy)” value is given as “dramatically reduced detection of HPV bound to the cell surface”. In addition, the “reduction of HPV binding to cells” value in the test on HPV16 PsVs [2] (polyR and HPV added simultaneously, 4° C.) is given as “≈ 50%”.
